Test results from PMC7321382, “Synthesis and Antibacterial Analysis of Analogues of the Marine Alkaloid Pseudoceratidine” (Molecules, 2020).
≈ marks a conversion by molar mass, not a printed value.

Tests used:
[1] = tested on: HEK293 human embryonic kidney cells; assay: Cytotoxicity, sulforhodamine B cell proliferation assay; type: cell-based; conditions: for relative growth of HEK293 cells (% of untreated control) at 16 µM: Homo sapiens, 72 h, 16 µM compound, 3 days, relative to control with no treatment, mean ± SD of triplicates; for cytotoxic activity (in words): HEK293, at concentrations 2–4 times the MIC (16 µM)
Method: As described previously, cell proliferation was measured by sulforhodamine B colorimetric assay in which 2000 HEK293 human embryonic kidney cells were seeded in 96-well plates in the presence of varying concentrations of drugs. The sulforhodamine B colorimetric assay, which is based on the measurement of cellular protein content, was used to measure cell density. After drug treatment for 3 days, cells were fixed with 10% (w/v) trichloroacetic acid and stained with 0.057% (w/v) sulforhodamine B for 30 min, and the excess dye was removed by washing repeatedly with 1% (v/v) acetic acid. The protein-bound dye was dissolved in Tris base solution (10 mM) for optical density determination at 510 nm using a microplate reader. All experiments were done in triplicate, and were repeated at least twice. The optimal cell densities were previously determined to select initial cell densities that ensured that the cells were in the logarithmic phase for the experiments.

S. aureus 16207 = assay: Antibacterial MIC, broth microdilution, S. aureus; type: cell-based, Staphylococcus aureus; conditions: Gram-positive, 24 h incubation, highest concentration tested 32 µM; for MIC: Staphylococcus aureus, 16207
Method: (§1) The MIC was determined using the broth microdilution method. Mueller Hinton (MH) broth base was prepared in milli-Q water, then autoclaved at 120 °C for 1 h before allowing it to cool to room temperature. A single colony of each bacterial strain (E. coli DH5α and S. aureus 16207) was inoculated in MHB and incubated at 37 °C overnight. Overnight cultures were adjusted to 10^6 CFU/mL in MHB according to the McFarland Standard,100 μL of which was further diluted to a total of 10 mL in the media. The stock solutions of the compounds were prepared at 12.8 mM in purified DMSO. The stock solutions were further diluted in milli-Q water to 64 μM in 0.5% DMSO for testing against S. aureus, and 256 μM in 2% DMSO for testing against E. coli. Compounds that were not soluble in these solvent mixtures were further diluted in half to get clear solutions for the bioassay. DMSO is known to have weak antibacterial activity. To exclude the antibacterial effect of DMSO from the results, a solution of 2% DMSO in milli-Q water was used as an additional control in the experiments. The compounds and three controls (the natural product pseudoceratidine 1 for both strains, streptomycin for S. aureus, and polymyxin B for E. coli) then underwent a dilution series. The assay was performed by adding 50 μL of each compound solution at the different concentrations and 50 μL of the diluted bacterial culture to the different wells of a 96-well microtiter plate. The experiments were performed at least thrice and in triplicates. MIC after 24 h of incubation was determined by both visual inspection and absorbance at 600 nm using an EnSpire Multimode plate reader.

E. coli DH5α = assay: Antibacterial MIC, broth microdilution, E. coli; type: cell-based, Escherichia coli; conditions: for MIC: Escherichia coli, Gram-negative, 24 h incubation, highest concentration tested 128 µM, † lower starting concentration due to insolubility
Method: as §1

Listeria monocytogenes = tested on: Listeria monocytogenes; parameters: method as in doi:10.1016/S0960-894X(96)00622-1, doi:10.1016/S0040-4020(98)00340-8, doi:10.1016/0040-4039(96)01310-X; conditions: Gram-positive; cited from earlier work
Pseudomonas aeruginosa = tested on: Pseudomonas aeruginosa; parameters: method as in doi:10.1016/S0960-894X(96)00622-1, doi:10.1016/S0040-4020(98)00340-8, doi:10.1016/0040-4039(96)01310-X; conditions: Gram-negative; cited from earlier work
Balanus amphitrite = tested on: Balanus amphitrite; parameters: method as in doi:10.1016/0040-4039(96)00025-1; conditions: marine larval organism Balanus amphitrite; cited from earlier work
Staphylococcus aureus = tested on: Staphylococcus aureus; parameters: method as in doi:10.1016/S0960-894X(96)00622-1, doi:10.1016/S0040-4020(98)00340-8, doi:10.1016/0040-4039(96)01310-X; conditions: Gram-positive; cited from earlier work
Plasmodium falciparum = tested on: Plasmodium falciparum; parameters: method as in PMID 29297684; conditions: anti-malarial; cited from earlier work
Candida albicans = tested on: Candida albicans; parameters: method as in doi:10.1016/S0960-894X(96)00622-1, doi:10.1016/S0040-4020(98)00340-8, doi:10.1016/0040-4039(96)01310-X; conditions: anti-fungal; cited from earlier work
Escherichia coli = tested on: Escherichia coli; parameters: method as in doi:10.1016/S0960-894X(96)00622-1, doi:10.1016/S0040-4020(98)00340-8, doi:10.1016/0040-4039(96)01310-X; conditions: Gram-negative; cited from earlier work
HepG2 liver cell line = tested on: HepG2 liver cell line; parameters: method as in PMID 29297684; conditions: compared with HEK293 result; cited from earlier work

| SMILES | relative growth of HEK293 cells (% of untreated control) at 16 µM [1] | MIC S. Aureus (S. aureus 16207) | MIC (S. aureus 16207) | MIC (E. coli DH5α) | melting point | MIC Listeria monocytogenes (Listeria monocytogenes) | MIC Pseudomonas aeruginosa (Pseudomonas aeruginosa) | EC50 antifouling (Balanus amphitrite) | MIC Staphylococcus aureus (Staphylococcus aureus) | EC50 (Plasmodium falciparum) | MIC Candida albicans (Candida albicans) | MIC Escherichia coli (Escherichia coli) | cytotoxic activity (in words) [1] | cytotoxicity versus HepG2 (in words) (HepG2 liver cell line) | activity against Gram-negative bacteria compared with 1 (in words) (E. coli DH5α) |
| --- | --- | --- | --- | --- | --- | --- | --- | --- | --- | --- | --- | --- | --- | --- | --- |
| O=C(NCCCNCCCNCCCNC(=O)c1cc(Br)c(Br)[nH]1)c1cc(Br)c(Br)[nH]1 [Compound 18e] | 2.1 ± 1.5% | 2 to 4 µM | 2 to 4 µM (≈ 1.38 to 2.76 µg/mL) | 32 to 64 µM (≈ 22.1 to 44.2 µg/mL) | – | – | – | – | – | – | – | – | – | – | – |
| O=C(NCCCNCCCCNCCCNC(=O)c1cc(Cl)c(Cl)[nH]1)c1cc(Cl)c(Cl)[nH]1 [Compound 19c] | 1.6 ± 2% | 4 to 8 µM | 4 to 8 µM (≈ 2.11 to 4.21 µg/mL) | 128 to 256 µM (≈ 67.4 to 135 µg/mL) | 110 to 112 °C | – | – | – | – | – | – | – | – | – | – |
| O=C(NCCCCCCNCCCCCCNC(=O)c1cc(Br)c(Br)[nH]1)c1cc(Br)c(Br)[nH]1 [Compound 15e] | 1.3 ± 0.8% | 4 to 8 µM | 4 to 8 µM (≈ 2.87 to 5.74 µg/mL) | 16 to 32 µM (≈ 11.5 to 22.9 µg/mL) | – | – | – | – | – | – | – | – | – | – | – |
| O=C(NCCCCNCCCNC(=O)c1cc(Br)c(Br)[nH]1)c1cc(Br)c(Br)[nH]1 [Pseudoceratine 1, pseudoceratidine] | 0.7 ± 0.8% | 8 to 16 µM | 8 to 16 µM (≈ 5.18 to 10.4 µg/mL) | 32 to 64 µM (≈ 20.7 to 41.4 µg/mL) | – | 5 µg/mL (≈ 7.73 µM) | 128 µg/mL (≈ 198 µM) | 8 µg/mL (≈ 12.4 µM) | 4 µg/mL (≈ 6.18 µM) | 1 µM | 32 µg/mL (≈ 49.5 µM) | 32 µg/mL (≈ 49.5 µM) | – | – | – |
| O=C(NCCCNCCCCNCCCNC(=O)c1cc(Br)c(Br)[nH]1)c1cc(Br)c(Br)[nH]1 [Compound 19e] | 94.5 ± 5.9% | 2 to 4 µM | 2 to 4 µM (≈ 1.41 to 2.82 µg/mL) | 32 to 64 µM (≈ 22.5 to 45.1 µg/mL) | – | – | – | – | – | – | – | – | almost no cytotoxic activity | far less toxic | – |
| O=C(NCCCNCCNC(=O)c1cc(Cl)c(Cl)[nH]1)c1cc(Cl)c(Cl)[nH]1 [Compound 16c] | 2.5 ± 1.8% | 16 to 32 µM | 16 to 32 µM (≈ 7.06 to 14.1 µg/mL) | 32 to 64 µM (≈ 14.1 to 28.2 µg/mL) | 133 to 135 °C | – | – | – | – | – | – | – | – | – | equivalents activity to 1 |
| O=C(NCCCNCCNC(=O)c1cc(Br)c(Br)[nH]1)c1cc(Br)c(Br)[nH]1 [Compound 16e] | 2.6 ± 2% | 8 to 16 µM | 8 to 16 µM (≈ 4.95 to 9.9 µg/mL) | 64 to 128 µM (≈ 39.6 to 79.2 µg/mL) | 206 to 208 °C | – | – | – | – | – | – | – | – | – | – |
| O=C(NCCCCCCNCCCCCCNC(=O)c1cc(Cl)c(Cl)[nH]1)c1cc(Cl)c(Cl)[nH]1 [Compound 15c] | 1.8 ± 2% | 4 to 8 µM | 4 to 8 µM (≈ 2.16 to 4.31 µg/mL) | 32 to 64 µM (≈ 17.3 to 34.5 µg/mL) | 189 to 190 °C | – | – | – | – | – | – | – | – | – | – |
| O=C(NCCCNCCCNC(=O)c1cc(Br)c(Br)[nH]1)c1cc(Br)c(Br)[nH]1 [Compound 14e] | 1.1 ± 0.9% | 8 to 16 µM | 8 to 16 µM (≈ 5.06 to 10.1 µg/mL) | 32 to 64 µM (≈ 20.3 to 40.5 µg/mL) | 135 to 137 °C | – | – | – | – | – | – | – | – | – | – |
| O=C(NCCCNCCCNCCCNC(=O)c1cc(Cl)c(Cl)[nH]1)c1cc(Cl)c(Cl)[nH]1 [Compound 18c] | 98 ± 4.5% | 4 to 8 µM | 4 to 8 µM (≈ 2.05 to 4.1 µg/mL) | 32 to 64 µM (≈ 16.4 to 32.8 µg/mL) | 109 to 111 °C | – | – | – | – | – | – | – | almost no cytotoxic activity | – | – |
| O=C(NCCCNCCCNC(=O)c1cc(Cl)c(Cl)[nH]1)c1cc(Cl)c(Cl)[nH]1 [Compound 14c] | 0.5 ± 0.3% | 8 to 16 µM | 8 to 16 µM (≈ 3.64 to 7.28 µg/mL) | 64 to 128 µM (≈ 29.1 to 58.3 µg/mL) | 189 to 190 °C | – | – | – | – | – | – | – | – | – | – |
| O=C(NCCCCNC(=O)c1cc(Cl)c[nH]1)c1cc(Cl)c[nH]1 [Compound 12b] | – | – | > 32 µM | > 64 µM | > 230 °C | – | – | – | – | – | – | – | – | – | – |
